The text below walks through data of US9828385B2, “Spiro-oxazolones” (Hoffmann-La Roche Inc., priority 2014, dated 2017).

Molecules are shown by their SMILES.

The target in the assay is T1, human V1a receptor (Homo sapiens, UniProt P37288).
T1 construct: expressed in transfected cells; host or cells: HEK293 cells, transiently transfected; cell membranes
T1 sequence (P37288 whole entry): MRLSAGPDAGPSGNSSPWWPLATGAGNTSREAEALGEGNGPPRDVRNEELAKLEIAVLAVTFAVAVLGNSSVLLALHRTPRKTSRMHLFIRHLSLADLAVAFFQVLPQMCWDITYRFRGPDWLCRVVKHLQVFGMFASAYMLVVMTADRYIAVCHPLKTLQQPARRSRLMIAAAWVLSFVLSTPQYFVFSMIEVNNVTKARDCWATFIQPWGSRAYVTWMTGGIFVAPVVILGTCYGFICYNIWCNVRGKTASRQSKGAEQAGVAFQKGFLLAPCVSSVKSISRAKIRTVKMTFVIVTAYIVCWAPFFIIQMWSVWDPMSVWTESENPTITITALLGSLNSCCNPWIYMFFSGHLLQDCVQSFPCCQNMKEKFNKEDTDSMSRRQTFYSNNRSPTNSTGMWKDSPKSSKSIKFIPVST
As to the kind of experiment: human V1a receptor binding studies (3H-Vasopressin, SPA beads). The conditions noted are these: membranes of HEK293 cells transiently transfected with human V1a receptor, Ki by Cheng-Prussoff from IC50, read-out: pKi hV1a (converted). In outline:
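Membranes from transiently transfected HEK293 cells expressing cloned human V1a receptor, on yttrium silicate SPA beads, competed against 4 nM 3H-vasopressin (added stock concentration) in Tris buffer with NaCl, KCl, CaCl2, MgCl2 for 1 h at room temperature. Nonspecific binding with cold vasopressin; IC50 by nonlinear fit, Ki via Cheng-Prusoff.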
Consider `CC1(Cc2ccc(Cl)cc2)OC(N2CCC3(CC2)OCc2ccccc23)=NC1=O` (stereo not drawn) [Example 75, 5-(4-Chlorobenzyl)-5-methyl-2-(1′H,3H-spiro[2-benzofuran-1,4′-piperidin]-1′-yl)-1,3-oxazol-4(5H)-one], for which the Ki was 3.98 nM. Take `CC1(CC2CCCC2)OC(N2CCC3(CC2)OCc2ccccc23)=NC1=O` (stereo not drawn) [Example 76, 5-(Cyclopentylmethyl)-5-methyl-2-(1′H,3H-spiro[2-benzofuran-1,4′-piperidin]-1′-yl)-1,3-oxazol-4(5H)-one]: the Ki is 5.01 nM. With `CC1(CC2CCCCC2)OC(N2CCC3(CC2)OCc2ccccc23)=NC1=O` (stereo not drawn) [Example 79, 5-(Cyclohexylmethyl)-5-methyl-2-(1′H,3H-spiro[2-benzofuran-1,4′-piperidin]-1′-yl)-1,3-oxazol-4(5H)-one], the Ki is 20 nM. Under `CC1(Cc2ccc(Cl)nc2)OC(N2CCC3(CC2)OCc2ccccc23)=NC1=O` (stereo not drawn) [Example 82, 5-[(6-Chloropyridin-3-yl)methyl]-5-methyl-2-(1′H,3H-spiro[2-benzofuran-1,4′-piperidin]-1′-yl)-1,3-oxazol-4(5H)-one] stands 50.1 nM; under `CC1(Cc2ccc(Cl)s2)OC(N2CCC3(CC2)OCc2ccccc23)=NC1=O` (stereo not drawn) [Example 85, 5-[(5-Chlorothiophen-2-yl)methyl]-5-methyl-2-(1′H,3H-spiro[2-benzofuran-1,4′-piperidin]-1′-yl)-1,3-oxazol-4(5H)-one], 5.01 nM; under `CC1(Cc2c(F)c(F)c(F)c(F)c2F)OC(N2CCC3(CC2)OCc2ccccc23)=NC1=O` (stereo not drawn) [Example 88, 5-Methyl-5-(pentafluorobenzyl)-2-(1′H,3H-spiro[2-benzofuran-1,4′-piperidin]-1′-yl)-1,3-oxazol-4(5H)-one], 79.4 nM. In the case of `CC1(C(F)(F)c2ccc(C(F)F)cc2)OC(N2CCC3(CC2)OCc2ccccc23)=NC1=O` (stereo not drawn) [Example 89, 5-{[4-(Difluoromethyl)phenyl](difluoro)methyl}-5-methyl-2-(1′H,3H-spiro[2-benzofuran-1,4′-piperidin]-1′-yl)-1,3-oxazol-4(5H)-one], the Ki is 158 nM. The value for `CC1(C(O)c2ccccc2)OC(N2CCC3(CC2)OCc2ccccc23)=NC1=O` (stereo not drawn) [Example 90, 5-[Hydroxy(phenyl)methyl]-5-methyl-2-(1′H,3H-spiro[2-benzofuran-1,4′-piperidin]-1′-yl)-1,3-oxazol-4(5H)-one] was 126 nM; that for `CC1(C(O)c2ccc(Cl)cc2)OC(N2CCC3(CC2)OCc2ccccc23)=NC1=O` (stereo not drawn) [Example 91, 5-[(4-Chlorophenyl)(hydroxy)methyl]-5-methyl-2-(1′H,3H-spiro[2-benzofuran-1,4′-piperidin]-1′-yl)-1,3-oxazol-4(5H)-one] was 25.1 nM; that for `CC1(C(F)c2ccc(Cl)cc2)OC(N2CCC3(CC2)OCc2ccccc23)=NC1=O` (stereo not drawn) [Example 92, 5-[(4-Chlorophenyl)(fluoro)methyl]-5-methyl-2-(1′H,3H-spiro[2-benzofuran-1,4′-piperidin]-1′-yl)-1,3-oxazol-4(5H)-one] was 31.6 nM. Under `CC1(C(O)c2ccc(Cl)cc2)OC(N2CCC3(CC2)OC(=O)c2ccccc23)=NC1=O` (stereo not drawn) [Example 93, 1′-{5-[(4-Chlorophenyl)(hydroxy)methyl]-5-methyl-4-oxo-4,5-dihydro-1,3-oxazol-2-yl}-3H-spiro[2-benzofuran-1,4′-piperidin]-3-one] stands 126 nM; under `O=C1N=C(N2CCC3(CC2)OCc2ccccc23)OC1(Cc1ccc(Cl)cc1)Cc1ccc(Cl)cc1` [Example 94, 5,5-bis(4-Chlorobenzyl)-2-(1′H,3H-spiro[2-benzofuran-1,4′-piperidin]-1′-yl)-1,3-oxazol-4(5H)-one], 1 nM; under `O=C1OC2(CCN(C3=NC(=O)C(Cc4ccc(Cl)cc4)(Cc4ccc(Cl)cc4)O3)CC2)c2ccccc21` [Example 95, 1′-[5,5-Bis(4-chlorobenzyl)-4-oxo-4,5-dihydro-1,3-oxazol-2-yl]-3H-spiro[2-benzofuran-1,4′-piperidin]-3-one], 5.01 nM. The value for `CC1(CN2CCCC2)OC(N2CCC3(CC2)OCc2ccccc23)=NC1=O` (stereo not drawn) [Example 98, 5-Methyl-5-(pyrrolidin-1-ylmethyl)-2-(1′H,3H-spiro[2-benzofuran-1,4′-piperidin]-1′-yl)-1,3-oxazol-4(5H)-one] was 251 nM; that for `CC1(CC2CCCO2)OC(N2CCC3(CC2)OCc2ccccc23)=NC1=O` (stereo not drawn) [Example 101, 5-Methyl-2-(1′H,3H-spiro[2-benzofuran-1,4′-piperidin]-1′-yl)-5-(tetrahydrofuran-2-ylmethyl)-1,3-oxazol-4(5H)-one] was 200 nM. `O=C1N=C(N2CCC3(CC2)OCc2ccccc23)OC12CCCC2` [Example 112, 2-(3H-Spiro[isobenzofuran-1,4′-piperidine]-1′-yl)-1-oxa-3-azaspiro[4.4]non-2-en-4-one]: the Ki was 158 nM. Under `O=C1N=C(N2CCC3(CC2)OCc2ccccc23)OC12CC=CC2` [Example 113, 2-(1′H,3H-Spiro[2-benzofuran-1,4′-piperidin]-1′-yl)-1-oxa-3-azaspiro[4.4]nona-2,7-dien-4-one] stands 100 nM. Under `CC1=CCC2(C1)OC(N1CCC3(CC1)OCc1ccccc13)=NC2=O` (stereo not drawn) [Example 114, 7-Methyl-2-(1′H,3H-spiro[2-benzofuran-1,4′-piperidin]-1′-yl)-1-oxa-3-azaspiro[4.4]nona-2,7-dien-4-one] stands 12.6 nM.

`CC1=C(C)CC2(C1)OC(N1CCC3(CC1)OCc1ccccc13)=NC2=O` [Example 115, 7,8-Dimethyl-2-(1′H,3H-spiro[2-benzofuran-1,4′-piperidin]-1′-yl)-1-oxa-3-azaspiro[4.4]nona-2,7-dien-4-one]: the Ki was 10 nM.

In the case of `CCOC(=O)C1=CCC2(C1)OC(N1CCC3(CC1)OCc1ccccc13)=NC2=O` (stereo not drawn) [Example 116, Ethyl 4-oxo-2-(1′H,3H-spiro[2-benzofuran-1,4′-piperidin]-1′-yl)-1-oxa-3-azaspiro[4.4]nona-2,7-diene-7-carboxylate], the Ki was 126 nM. The value for `O=C1N=C(N2CCC3(CC2)OCc2ccccc23)OC12CC=C(C(F)(F)F)C2` (stereo not drawn) [Example 117, 2-(1′H,3H-Spiro[2-benzofuran-1,4′-piperidin]-1′-yl)-7-(trifluoromethyl)-1-oxa-3-azaspiro[4.4]nona-2,7-dien-4-one] was 1.26 nM; that for `CC(C)(C)[Si](C)(C)OCC1=CCC2(C1)OC(N1CCC3(CC1)OCc1ccccc13)=NC2=O` (stereo not drawn) [Example 118, 7-({[tert-Butyl(dimethyl)silyl]oxy}methyl)-2-(1′H,3H-spiro[2-benzofuran-1,4′-piperidin]-1′-yl)-1-oxa-3-azaspiro[4.4]nona-2,7-dien-4-one] was 316 nM.

On to `O=C1N=C(N2CCC3(CC2)OCc2ccccc23)OC12CC=C(CO)C2` (stereo not drawn) [Example 119, 7-(Hydroxymethyl)-2-(3H-spiro[isobenzofuran-1,4′-piperidine]-1′-yl)-1-oxa-3-azaspiro[4.4]nona-2,7-dien-4-one], for which the Ki is 1000 nM.

Turning to `O=C1N=C(N2CCC3(CC2)OCc2ccccc23)OC12CCCCC2` [Example 123, 2-(1′H,3H-Spiro[2-benzofuran-1,4′-piperidin]-1′-yl)-1-oxa-3-azaspiro[4.5]dec-2-en-4-one], the Ki is 10 nM. Take `O=C1OC2(CCN(C3=NC(=O)C4(CCCCC4)O3)CC2)c2ccccc21` [Example 124, 1′-(4-Oxo-1-oxa-3-azaspiro[4.5]dec-2-en-2-yl)-3H-spiro[2-benzofuran-1,4′-piperidin]-3-one]: the Ki is 158 nM.

With `O=C1N=C(N2CCC3(CC2)OCc2ccccc23)OC12CCCOC2` (stereo not drawn) [Example 125, 2-(1′H,3H-Spiro[2-benzofuran-1,4′-piperidin]-1′-yl)-1,7-dioxa-3-azaspiro[4.5]dec-2-en-4-one], the Ki was 200 nM. The value for `O=C1N=C(N2CCC3(CC2)OCc2ccccc23)OC12CCC(F)(F)CC2` [Example 130, 8,8-Difluoro-2-(1′H,3H-spiro[2-benzofuran-1,4′-piperidin]-1′-yl)-1-oxa-3-azaspiro[4.5]dec-2-en-4-one] was 6.31 nM; that for `O=C1OC2(CCN(C3=NC(=O)C4(CCC(F)(F)CC4)O3)CC2)c2ccccc21` [Example 131, 1′-(8,8-Difluoro-4-oxo-1-oxa-3-azaspiro[4.5]dec-2-en-2-yl)-3H-spiro[2-benzofuran-1,4′-piperidin]-3-one] was 50.1 nM. Under `O=C1N=C(N2CCC3(CC2)OCc2ccccc23)OC12CCSCC2` [Example 132, 2-(1′H,3H-Spiro[2-benzofuran-1,4′-piperidin]-1′-yl)-1-oxa-8-thia-3-azaspiro[4.5]dec-2-en-4-one] stands 15.8 nM; under `O=C1N=C(N2CCC3(CC2)OCc2ccccc23)OC12CCS(=O)(=O)CC2` [Example 133, 2-(1′H,3H-Spiro[2-benzofuran-1,4′-piperidin]-1′-yl)-1-oxa-8-thia-3-azaspiro[4.5]dec-2-en-4-one 8,8-dioxide], 126 nM; under `CC(C)(C)OC(=O)N1CCC2(CC1)OC(N1CCC3(CC1)OCc1ccccc13)=NC2=O` [Example 134, tert-Butyl 4-oxo-2-(1′H,3H-spiro[2-benzofuran-1,4′-piperidin]-1′-yl)-1-oxa-3,8-diazaspiro[4.5]dec-2-ene-8-carboxylate], 158 nM. Regarding `O=C1N=C(N2CCC3(CC2)OCc2ccccc23)OC12CCN(Cc1ccccc1)CC2` [Example 135, 8-Benzyl-2-(1′H,3H-spiro[2-benzofuran-1,4′-piperidin]-1′-yl)-1-oxa-3,8-diazaspiro[4.5]dec-2-en-4-one], the Ki was 398 nM. Under `O=C1N=C(N2CCC3(CC2)OCc2ccccc23)OC12CCN(CC(F)F)CC2` [Example 136, 8-(2,2-Difluoroethyl)-2-(1′H,3H-spiro[2-benzofuran-1,4′-piperidin]-1′-yl)-1-oxa-3,8-diazaspiro[4.5]dec-2-en-4-one] stands 316 nM.
